Source: US5135943A, “1H-imidazole derivative compounds and pharmaceutical compositions containing the same” (priority 1984, dated 1992)
≈ marks a conversion by molar mass, not a printed value.

Tests used:
[1] = system: cutaneous mycosis; assay: Randomized double blind clinical trials, cutaneous mycosis; conditions: 2 % cream (nitrate salts)
Procedure: Human clinical trials were performed with Sertaconazole nitrate and Miconazole nitrate acid addition salts. Randomized double blind trials were carried out with 502 patients suffering from cutaneous mycosis as confirmed by microscopic examination and microbiological culture. 247 patients were treated with 2 % Sertaconazole cream and the remaining 255 patients were treated with 2 % Miconazole cream. All patients received scheduled treatment for 28 days and were followed up for an additional 28 days for possible relapses.

[2] = system: Candida s.p.; assay: MIC by two-fold dilution, Candida s.p.; assay type: cell-based
Procedure: (§1) Minimum Inhibitory Concentrations (MICS) of Sertaconazole and Miconazole against 107 yeasts, 47 dermatophytes and 4 fungi were determined by a two-fold dilution method.

[3] = system: Trichophyton rubrus; assay: MIC by two-fold dilution, Trichophyton rubrus; assay type: cell-based; conditions: 10 strains, read-out: Minimum Inhibitory Concentration
Procedure: as §1

## Clc1ccc(C(Cn2ccnc2)OCc2csc3c(Cl)cccc23)c(Cl)c1 (centres unmarked) [Sertaconazole]
[1]
  side effects (contact dermatitis): no such side effects
[1]; 28 days treatment
  more effective than Miconazole: 20.8%
[2]; Candida, 15 strains, read-out: Minimum Inhibitory Concentration
  MIC: 0.5 µg/mL (≈ 1.14 µM)
[2]; in vitro
  increase of activity in comparison to Miconazole: 47.4%
[3]
  MIC: 0.4 µg/mL (≈ 0.914 µM)
